The results in this text go back to patent US8389276B2 (priority 2001, dated 2013).

Assay [1] has as its system primary fibroblasts isolated from Bax/Bak double deficient mice. Format: cell-based, mouse. From the text:
(§1) To study how the apoptotic machinery is regulated, mice deficient in both Bax and Bak have been produced. […] The characteristics of Bax/Bak double deficient mice are described in greater detail in our publications: Lindsten, T., Ross, A. J., King, A., Zong, W. X., Rathmell, J. C., Shiels, H. A., Ulrich, E., Waymire, K. G., Mahar, P., Frauwirth, K., Chen, Y., Wei, M., Eng, V. M., Adelman, D. M., Simon, M. C., Ma, A., Golden, J. A., Evan, G., Korsmeyer, S. J., MacGregor, G. R., and Thompson, C.

The next assay deals with wild type immortal cells. Briefly: Death rate of wild type immortalized cells after death stimuli (DAPI staining, FACS). The class given is cell-based, mouse. Particulars: 24 hours, DAPI 1 μg/ml, FIG. 3A. On the procedure:
(§2) This example relates to determining that immortalized Bax/Bak doubly deficient cells are resistant to wide variety of death stimuli, including BH-3 only proapoptotic proteins. To test whether immortal Bax/Bak double deficient cells behave like primary Bax/Bak double deficient cells in resisting intrinsic cell death stimuli, wild type and Bax/Bak doubly deficient cells were treated with serum deprivation, etoposide (100 μM), staurosporin (4 μM), or brefeldin A (10 μg/ml). 24 hours later, cells were stained with DAPI (1 μg/ml), and death rate determined by FACS. Wild type immortal cells were killed by each of these death stimuli. This is consistent with the findings in the primary MEF cells.

Assay [2] has as its system Bax/Bak doubly deficient cells. Put plainly: Death rate of Bax/Bak doubly deficient immortalized cells after death stimuli (DAPI staining, FACS). The class given is cell-based, mouse. As to conditions: Bax/Bak doubly deficient immortal cells, 24 hours, DAPI 1 μg/ml, FIG. 3A. The procedure:
as §2

Assay [3] has as its system thymocytes isolated from the Bax/Bak double deficient mice.
Source text: as §1

Where [4] appears, read: primary fibroblasts from Bax/Bak double deficient mice.

Read-outs that look alike come from different tables or passages of the source.

In the case of `CN[C@@H]1C[C@H]2O[C@@](C)([C@@H]1OC)n1c3ccccc3c3c4c(c5c6ccccc6n2c5c31)C(=O)NC4` [staurosporin], the “resistance to death stimulus” value in assay [1] is reported as “resistant”. For the same molecule, the “cell death (death rate by FACS)” value in the assay with wild type immortal cells (staurosporin 4 μM) is recorded as “killed”; in assay [2] (staurosporin 4 μM), “survived”.

Regarding tunicamycin, in assay [1] (setting [4]), the “resistance to death stimulus” value is recorded as “resistant”.

As to tharpsigargin, the “resistance to death stimulus” value in assay [1] (setting [4]) was “resistant”.

`COc1cc([C@@H]2c3cc4c(cc3[C@@H](O[C@@H]3O[C@@H]5CO[C@@H](C)O[C@H]5[C@H](O)[C@H]3O)[C@H]3COC(=O)[C@H]23)OCO4)cc(OC)c1O` [etoposide]: the “resistance to induced cell death” value in assay [3] is “resistant”. Besides, in assay [1] (setting [4]), the “resistance to death stimulus” value is on record as “resistant”. Further, the “cell death (death rate by FACS)” value is recorded as “killed” in the assay on wild type immortal cells (etoposide 100 μM) and “survived” in assay [2] (etoposide 100 μM).

On to `C[C@H]1CCC/C=C/[C@@H]2C[C@H](O)C[C@H]2[C@H](O)/C=C/C(=O)O1` [brefeldin A], for which, in assay [1] (setting [4]), the “resistance to death stimulus” value is listed as “resistant”. The figures for the “cell death (death rate by FACS)” value (in the assay with wild type immortal cells (brefeldin A 10 μg/ml); in assay [2] (brefeldin A 10 μg/ml)) were “killed” and “survived”, respectively.
